The source made the active and inactive calls. For most assays here, no stated cut-off is given here; in the data, actives have a measured EC50 and inactives only a lower limit.
Target: T1, Leucine aminopeptidase (Plasmodium falciparum 3D7, UniProt Q8IL11)
T1 sequence (Q8IL11 whole entry): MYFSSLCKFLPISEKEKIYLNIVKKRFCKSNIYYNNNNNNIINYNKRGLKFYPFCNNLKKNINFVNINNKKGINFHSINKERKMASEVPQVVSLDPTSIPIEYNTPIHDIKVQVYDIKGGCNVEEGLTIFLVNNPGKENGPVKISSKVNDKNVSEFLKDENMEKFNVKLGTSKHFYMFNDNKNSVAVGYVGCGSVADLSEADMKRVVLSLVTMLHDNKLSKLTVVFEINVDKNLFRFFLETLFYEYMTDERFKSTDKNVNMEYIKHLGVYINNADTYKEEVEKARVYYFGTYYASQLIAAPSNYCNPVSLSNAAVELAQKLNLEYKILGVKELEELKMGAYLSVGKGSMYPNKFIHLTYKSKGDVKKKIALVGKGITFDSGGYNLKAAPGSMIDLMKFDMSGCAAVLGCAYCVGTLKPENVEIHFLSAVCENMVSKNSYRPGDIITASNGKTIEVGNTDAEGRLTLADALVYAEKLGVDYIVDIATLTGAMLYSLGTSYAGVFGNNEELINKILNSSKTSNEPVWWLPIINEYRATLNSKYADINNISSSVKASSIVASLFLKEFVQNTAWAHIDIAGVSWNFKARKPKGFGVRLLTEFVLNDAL
Assay: P. falciparum M17LAP inhibitors, primary screen, biochemical, fluorogenic H-Leu-NHMec substrate, 1536-well (AID 1619)
Format: functional
Details: not given

Compound	IC50
Cc1cc(C(=O)COC(=O)c2ccc[nH]c2=O)c(C)n1C1CC1	13.3 µM (active)
O=C(NC(=S)NNS(=O)(=O)c1ccccc1)c1ccccc1[N+](=O)[O-]	29.9 µM (active)
CCOc1ccc(NC(=O)CSc2nnnn2CC(=O)O)cc1	6.69 µM (active)
O=C(Cn1nnc2ccccc2c1=O)Nc1ccc2c(c1)CCC2	1.51 µM (active)
COc1cccc(Nc2ncnc3[nH]cnc23)c1	95.1 µM (active)

Test system: not listed separately
Assay: HEp-2 cell cytotoxicity, dose response, cytotoxicity control for RSV inhibitor project, HTS (AID 2410)
Format: functional
Details: human respiratory syncytial virus

Compound	CC50
O=C(Nc1nnc(C2CC2)s1)c1cc(-c2ccccc2)nn1-c1ccccc1	13.1 µM (active)

Test system: not listed separately
Assay: inhibitors of firefly luciferase expression or activity, dose response, H4 neuroglioma cells, luminescence (AID 1990)
Format: functional, cell-based
Details: not given

Compound	EC50
CC(C)c1ccc2[nH]c(O)c(N=NC(=O)c3cccc(S(=O)(=O)Nc4ccc(Cl)cc4)c3)c2c1	> 120 µM (not active)
O=C(Cc1ccc(N2CCNC2=O)cc1)N1CCCC(Nc2cccc(F)c2)C1 (stereo not drawn)	9.37 µM (inconclusive)
CCCCC1CCC(c2nc(-c3ccccn3)no2)CC1 (stereo not drawn)	9.12 µM (inconclusive)
Cc1ccc(N(Cc2ccc(C(=O)Nc3ccccc3C(=O)NCc3ccco3)cc2)S(C)(=O)=O)cc1C	17.5 µM (active)
COc1cc(/C=C2\N=C(c3ccccc3)NNC2=O)cc(OC)c1OC	> 120 µM (not active)
O=C(CN1C(=O)c2ccccc2S1(=O)=O)N1CCc2ccccc2C1	25.5 µM (active)

Test system: Streptococcus sp. 'group A'
Assay: growth inhibition of control SK(-) GAS strain, dose response, counter-screen for streptokinase expression inhibitor project, luminescence, kanamycin, BacTiterGlo, confirmation (AID 1900)
Format: functional, organism-based
Details: not given

Compound	EC50
CCCCC1CCC(c2nc(-c3ccccn3)no2)CC1 (stereo not drawn)	16.1 µM (active)
O=C(Nc1nnc(C2CC2)s1)c1cc(-c2ccccc2)nn1-c1ccccc1	10.1 µM (active)

Test system: BJ
Assay: cytotoxicity toward BJ-TERT fibroblasts, dose response, cell-based, RAS-independent, luminescence (AID 1933)
Format: functional
Details: Homo sapiens

Compound	EC50
Cc1ccc(NC(=O)CCc2c[nH]c3ccccc23)nc1	12.6 µM (active)
CC(/C=N/NC(=O)c1cc(-c2ccc(Cl)cc2)nc2ccccc12)=C\c1ccco1	2.07 µM (active)

Target: Glyceraldehyde-3-phosphate dehydrogenase (Homo sapiens, UniProt P04406)
Sequence (P04406 whole entry): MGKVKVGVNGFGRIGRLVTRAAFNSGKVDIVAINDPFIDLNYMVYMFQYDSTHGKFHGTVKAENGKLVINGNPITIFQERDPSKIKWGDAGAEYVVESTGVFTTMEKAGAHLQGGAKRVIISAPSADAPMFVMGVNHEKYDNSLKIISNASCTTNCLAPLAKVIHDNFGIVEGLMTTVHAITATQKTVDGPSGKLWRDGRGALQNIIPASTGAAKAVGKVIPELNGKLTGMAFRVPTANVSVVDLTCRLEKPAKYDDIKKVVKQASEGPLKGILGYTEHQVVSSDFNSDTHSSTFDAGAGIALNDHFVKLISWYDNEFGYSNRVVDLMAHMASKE
Assay: not given
Details: not given

Compound	IC50
COc1cccc(N2CCN(C3=C(Cl)C(=O)N(c4ccc([N+](=O)[O-])cc4)C3=O)CC2)c1	> 50 µM (inconclusive)

Test system: not listed separately
Assay: Luminescence Cell-Based Dose Response HTS to Identify Inhibitors of 5'UTR Stem-Loop Driven Prion Protein mRNA Translation in H4 Neuroglioblastoma Cells. [Related pubchem assays: 1827 (Project Summary), 1813 (Primary HTS)]
Format: functional
Details: not given

Compound	EC50
CC(C)c1ccc2[nH]c(O)c(N=NC(=O)c3cccc(S(=O)(=O)Nc4ccc(Cl)cc4)c3)c2c1	> 120 µM (not active)
O=C(Cc1ccc(N2CCNC2=O)cc1)N1CCCC(Nc2cccc(F)c2)C1 (stereo not drawn)	2.72 µM (active)
CCCCC1CCC(c2nc(-c3ccccn3)no2)CC1 (stereo not drawn)	> 60 µM (not active)
Cc1ccc(N(Cc2ccc(C(=O)Nc3ccccc3C(=O)NCc3ccco3)cc2)S(C)(=O)=O)cc1C	> 120 µM (not active)
COc1cc(/C=C2\N=C(c3ccccc3)NNC2=O)cc(OC)c1OC	9.91 µM (active)
O=C(CN1C(=O)c2ccccc2S1(=O)=O)N1CCc2ccccc2C1	21.4 µM (active)

Test system: not listed separately
Assay: inhibitors of SNCA 5'UTR-driven reporter translation, confirmation, H4 neuroglioma cells, luminescence (AID 1988)
Format: functional, cell-based
Details: not given

Compound	EC50
CC(C)c1ccc2[nH]c(O)c(N=NC(=O)c3cccc(S(=O)(=O)Nc4ccc(Cl)cc4)c3)c2c1	> 120 µM (not active)
O=C(Cc1ccc(N2CCNC2=O)cc1)N1CCCC(Nc2cccc(F)c2)C1 (stereo not drawn)	5.11 µM (active)
CCCCC1CCC(c2nc(-c3ccccn3)no2)CC1 (stereo not drawn)	2.95 µM (active)
Cc1ccc(N(Cc2ccc(C(=O)Nc3ccccc3C(=O)NCc3ccco3)cc2)S(C)(=O)=O)cc1C	22.9 µM (active)
COc1cc(/C=C2\N=C(c3ccccc3)NNC2=O)cc(OC)c1OC	8.22 µM (active)
O=C(CN1C(=O)c2ccccc2S1(=O)=O)N1CCc2ccccc2C1	12.6 µM (active)

Target: T2, Streptokinase A (Streptococcus pyogenes serotype M1, UniProt P10520)
T2 sequence (P10520 whole entry): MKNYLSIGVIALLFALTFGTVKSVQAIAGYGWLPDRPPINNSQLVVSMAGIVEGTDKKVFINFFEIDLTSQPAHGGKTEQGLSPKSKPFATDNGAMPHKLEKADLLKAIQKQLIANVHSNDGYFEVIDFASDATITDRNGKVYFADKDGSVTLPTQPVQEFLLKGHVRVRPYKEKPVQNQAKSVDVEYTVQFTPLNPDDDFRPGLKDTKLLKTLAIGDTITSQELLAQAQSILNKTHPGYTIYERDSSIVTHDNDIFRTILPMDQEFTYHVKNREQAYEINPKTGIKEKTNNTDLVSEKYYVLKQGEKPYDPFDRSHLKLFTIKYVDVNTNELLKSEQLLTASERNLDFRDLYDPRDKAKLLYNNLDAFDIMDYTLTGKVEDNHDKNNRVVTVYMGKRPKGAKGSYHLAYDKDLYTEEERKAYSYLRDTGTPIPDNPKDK
Assay: S. pyogenes streptokinase expression inhibitors, potency, dose response, plasminogen activation absorbance, OD405 (AID 1914);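 further: secreted streptokinase activity via plasminogen activation per viability signal from cell pellet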
Format: functional, Streptococcus pyogenes M1 GAS
Details: not given

Compound	EC50
CCCCC1CCC(c2nc(-c3ccccn3)no2)CC1 (stereo not drawn)	> 150 µM (not active)
O=C(Nc1nnc(C2CC2)s1)c1cc(-c2ccccc2)nn1-c1ccccc1	8.32 µM (active)

Test system: BJ
Assay: cells
Format: functional, cell-based
Details: Homo sapiens

Compound	EC50
Cc1ccc(NC(=O)CCc2c[nH]c3ccccc23)nc1	50.4 µM (active)
CC(/C=N/NC(=O)c1cc(-c2ccc(Cl)cc2)nc2ccccc12)=C\c1ccco1	2.73 µM (active)

Test system: BJ
Assay: cytotoxicity toward BJ-TERT-LT-ST fibroblasts, dose response, cell-based, RAS-independent, luminescence (AID 1935);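 further: BJ fibroblasts immortalized with TERT plus LT and ST oncogenes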
Format: functional
Details: Homo sapiens

Compound	EC50
Cc1ccc(NC(=O)CCc2c[nH]c3ccccc23)nc1	> 150 µM (inconclusive)
CC(/C=N/NC(=O)c1cc(-c2ccc(Cl)cc2)nc2ccccc12)=C\c1ccco1	22.4 µM (inconclusive)

Test system: not listed separately
Assay: cytotoxicity toward DRD oncogenic fibroblasts, dose response, cell-based, non-viral oncogenic, luminescence (AID 1934)
Format: functional
Details: Homo sapiens

Compound	EC50
Cc1ccc(NC(=O)CCc2c[nH]c3ccccc23)nc1	17.7 µM (active)
CC(/C=N/NC(=O)c1cc(-c2ccc(Cl)cc2)nc2ccccc12)=C\c1ccco1	2.58 µM (inconclusive)

Target: Induced myeloid leukemia cell differentiation protein Mcl-1 (Homo sapiens, UniProt Q07820)
Sequence (Q07820 whole entry): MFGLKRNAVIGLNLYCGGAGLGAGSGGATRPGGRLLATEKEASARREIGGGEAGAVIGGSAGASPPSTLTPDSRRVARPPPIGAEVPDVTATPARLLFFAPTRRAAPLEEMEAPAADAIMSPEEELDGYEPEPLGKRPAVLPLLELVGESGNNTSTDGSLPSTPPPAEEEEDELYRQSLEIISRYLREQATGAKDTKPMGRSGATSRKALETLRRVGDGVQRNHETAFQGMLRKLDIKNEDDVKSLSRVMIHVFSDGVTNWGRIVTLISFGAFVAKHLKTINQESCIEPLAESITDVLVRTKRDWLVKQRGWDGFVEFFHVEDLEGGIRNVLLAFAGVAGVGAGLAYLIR
Assay: not given
Format: functional
Details: not given

Compound	IC50
Cc1cc2nc(-c3ccc(SCC(=O)N4CCN(C(=O)c5ccco5)CC4)nc3)[nH]c2cc1C	3.63 µM (active)
O=C(O)CCCCCN1C(=O)/C(=C\c2ccc(-c3ccc(Cl)cc3)o2)SC1=S	1.27 µM (active)
O=C(O)c1ccc(N/N=C/C2=C(N3CCOCC3)C(=C\c3ccccc3)/CC2)cc1	4.44 µM (active)

Test system: Streptococcus
Assay: Group A Streptococcus viability loss, dose response, counter-screen for streptokinase expression inhibitor project, luminescence, BacTiterGlo (AID 1915);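 further: potency for reduction of bacterial viability or growth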
Format: functional, organism-based
Details: not given

Compound	EC50
CCCCC1CCC(c2nc(-c3ccccn3)no2)CC1 (stereo not drawn)	21 µM (active)
O=C(Nc1nnc(C2CC2)s1)c1cc(-c2ccccc2)nn1-c1ccccc1	20.8 µM (active)

Target: T3, Heat shock factor protein 1 (Mus musculus, UniProt P38532)
T3 sequence (P38532 whole entry): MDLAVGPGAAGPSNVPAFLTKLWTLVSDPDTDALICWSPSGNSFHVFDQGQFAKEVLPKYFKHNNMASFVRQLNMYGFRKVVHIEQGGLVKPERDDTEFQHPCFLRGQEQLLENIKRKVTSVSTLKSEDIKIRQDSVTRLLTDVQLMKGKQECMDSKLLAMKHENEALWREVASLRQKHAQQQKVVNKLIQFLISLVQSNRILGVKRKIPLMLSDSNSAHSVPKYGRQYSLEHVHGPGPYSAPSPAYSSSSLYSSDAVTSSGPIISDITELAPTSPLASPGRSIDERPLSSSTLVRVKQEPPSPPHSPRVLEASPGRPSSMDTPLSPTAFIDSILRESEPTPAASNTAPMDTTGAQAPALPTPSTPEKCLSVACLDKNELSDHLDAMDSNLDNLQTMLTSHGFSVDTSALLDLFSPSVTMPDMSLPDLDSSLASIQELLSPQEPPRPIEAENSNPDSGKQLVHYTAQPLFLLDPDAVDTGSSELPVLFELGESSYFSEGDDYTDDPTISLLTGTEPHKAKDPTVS
Assay: HSF1 potentiators in luciferase reporter cells, confirmation, cell-based, NIH3T3, luminescence, dose retest (AID 435004);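 further: stress induced by proteasome inhibitor MG132 added 30 min after compound; luciferase reporter driven by HSF1 response element in NIH3T3 cells; actives raise luminescence as potentiators of the MG132 stress response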
Format: functional
Details: not given

Compound	EC50
Cc1ccc(N(Cc2ccc(C(=O)Nc3ccccc3C(=O)NCc3ccco3)cc2)S(C)(=O)=O)cc1C	> 260 µM (inactive)

Test system: H9c2;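 further: confirmatory concentration-response retest of ultra-high-throughput screening hits for modulation of myocardial damage; cell death induced by hydrogen peroxide oxidative stress; compound pretreatment for 60 min then peroxide exposure for 2 h; potency is for protecting the cells against peroxide damage rather than for killing them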
Assay: cells
Format: functional, cell-based
Details: Rattus norvegicus, H9c2, Myocardium

Compound	IC50
O=C(Nc1nnc(C2CC2)s1)c1cc(-c2ccccc2)nn1-c1ccccc1	12.3 µM (active)

Target: T4, Polyadenylate-binding protein 1 (Homo sapiens, UniProt P11940)
T4 sequence (P11940 whole entry): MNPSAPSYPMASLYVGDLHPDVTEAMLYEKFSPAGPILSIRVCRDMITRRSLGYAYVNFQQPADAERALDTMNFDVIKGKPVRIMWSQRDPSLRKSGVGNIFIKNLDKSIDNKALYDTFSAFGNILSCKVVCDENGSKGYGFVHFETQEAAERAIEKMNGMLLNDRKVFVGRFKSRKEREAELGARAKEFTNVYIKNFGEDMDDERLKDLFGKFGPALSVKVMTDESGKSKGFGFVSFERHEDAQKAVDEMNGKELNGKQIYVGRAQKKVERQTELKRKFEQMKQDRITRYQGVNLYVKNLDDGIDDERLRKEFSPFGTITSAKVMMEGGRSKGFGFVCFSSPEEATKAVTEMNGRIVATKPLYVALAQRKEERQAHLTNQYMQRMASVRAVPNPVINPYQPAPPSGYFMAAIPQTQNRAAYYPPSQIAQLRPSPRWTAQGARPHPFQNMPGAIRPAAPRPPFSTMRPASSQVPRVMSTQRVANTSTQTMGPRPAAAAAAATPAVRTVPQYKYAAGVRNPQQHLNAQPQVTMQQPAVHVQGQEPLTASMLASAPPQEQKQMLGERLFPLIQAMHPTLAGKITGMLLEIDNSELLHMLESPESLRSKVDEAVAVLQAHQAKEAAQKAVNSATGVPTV
Assay: PABP1 MLLE–PAM2 interaction inhibitors, dose response, miRNA deadenylation inhibitor project, biochemical, fluorescence polarization, Cy5-PAM2 peptide, secondary (AID 602260)
Format: functional
Details: read-out: IC50_Mean

Compound	IC50
O=C(NC(=S)NNS(=O)(=O)c1ccccc1)c1ccccc1[N+](=O)[O-]	> 66 µM (inactive)
COC(=O)c1ccccc1NC(=S)NC(=O)c1ccc2c(c1)OCO2	> 66 µM (inactive)
CC1CCN(c2ccccc2NC(=S)NC(=O)c2ccco2)CC1	> 66 µM (inactive)
COC(=O)c1sc(=S)n(-c2cc(F)ccc2F)c1N	> 66 µM (inactive)
CCCCCc1ccc(C(=O)CCCC)c(S)n1	> 66 µM (inactive)
O=C1CCCC(=O)C1=NNc1ccc2ncsc2c1	> 66 µM (inactive)
CC(C)Oc1ccc(C(=O)NC2(C(F)(F)F)N=C3SCCN3C2=O)cc1 (stereo not drawn)	> 66 µM (inactive)

Target: T4, Polyadenylate-binding protein 1
Assay: PABP1 MLLE–PAM2 binding inhibitor potency, dose response, biochemical, fluorescence polarization, FITC-PAM2 peptide (AID 602259)
Format: functional
Details: read-out: IC50_Mean

Compound	IC50
O=C(NC(=S)NNS(=O)(=O)c1ccccc1)c1ccccc1[N+](=O)[O-]	> 66 µM (inactive)
COC(=O)c1ccccc1NC(=S)NC(=O)c1ccc2c(c1)OCO2	> 66 µM (inactive)
CC1CCN(c2ccccc2NC(=S)NC(=O)c2ccco2)CC1	> 66 µM (inactive)
COC(=O)c1sc(=S)n(-c2cc(F)ccc2F)c1N	> 66 µM (inactive)
CCCCCc1ccc(C(=O)CCCC)c(S)n1	> 66 µM (inactive)
O=C1CCCC(=O)C1=NNc1ccc2ncsc2c1	> 66 µM (inactive)
CC(C)Oc1ccc(C(=O)NC2(C(F)(F)F)N=C3SCCN3C2=O)cc1 (stereo not drawn)	> 66 µM (inactive)

Test system: not listed separately
Assay: inhibitors of HIV Env-driven cell fusion, dose response, cherry-pick (AID 652057)
Format: functional, cell-based
Details: not given

Compound	AC50
O=C(c1ccc(Cl)s1)N1CCN(c2nc3ccccc3s2)CC1	55.7 µM (active)
C[C@H](CO)N1C[C@H](C)[C@H](CN(C)S(=O)(=O)c2cccs2)Oc2ccc(NC(=O)Cc3cn(C)c4ccccc34)cc2CC1=O	0.883 µM (active)

Test system: not listed separately
Assay: inhibitors of clade B AD8 Env fusion, dose response, cell-based, cherry-pick (AID 652062);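 further: luciferase signal from cell-cell fusion driven by HIV-1 clade B AD8 Env; potency is for inhibitors of fusion seen as a drop in luminescence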
Format: functional
Details: not given

Compound	AC50
O=C(c1ccc(Cl)s1)N1CCN(c2nc3ccccc3s2)CC1	11.9 µM (active)
C[C@H](CO)N1C[C@H](C)[C@H](CN(C)S(=O)(=O)c2cccs2)Oc2ccc(NC(=O)Cc3cn(C)c4ccccc34)cc2CC1=O	12.5 µM (active)

Target: Cytochrome P450 2D6 (Homo sapiens, UniProt P10635);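 further: CYP2D6 member of a cytochrome P450 panel assay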
Sequence (P10635 whole entry): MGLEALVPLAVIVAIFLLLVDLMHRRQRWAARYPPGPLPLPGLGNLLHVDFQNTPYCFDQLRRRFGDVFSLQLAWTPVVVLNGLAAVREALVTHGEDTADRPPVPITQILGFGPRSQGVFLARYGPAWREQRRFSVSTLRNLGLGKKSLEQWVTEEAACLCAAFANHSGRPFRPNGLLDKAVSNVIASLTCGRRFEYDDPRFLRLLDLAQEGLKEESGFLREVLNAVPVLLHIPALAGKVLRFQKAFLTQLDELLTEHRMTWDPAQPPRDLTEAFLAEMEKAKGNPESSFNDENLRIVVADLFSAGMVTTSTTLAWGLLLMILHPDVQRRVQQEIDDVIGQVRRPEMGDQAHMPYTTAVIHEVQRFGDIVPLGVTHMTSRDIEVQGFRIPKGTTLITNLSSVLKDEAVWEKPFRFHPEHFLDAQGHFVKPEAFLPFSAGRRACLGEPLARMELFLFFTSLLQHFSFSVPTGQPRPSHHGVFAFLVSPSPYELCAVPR
Assay: not given
Details: not given

Compound	AC50
CCCCC1CCC(c2nc(-c3ccccn3)no2)CC1 (stereo not drawn)	25.1 µM (inconclusive)
